According to article PMC7915940, “Synthesis, Antitumor and Antibacterial Studies of New Shortened Analogues of (KLAKLAK)2-NH2 and Their Conjugates Containing Unnatural Amino Acids” (Molecules, 2021):
Like-named read-outs stand apart in the source and are kept apart here. Non-standard residues stand in square brackets, D forms with d. Residues, ends and D or L forms follow the SMILES beside them. *: point of attachment. Acetyl(1,8-naphthalimido) = O=C1c2cccc3cccc(c23)C(=O)N1CC(=O)*; Caffeoyl = O=C(/C=C/c1ccc(O)c(O)c1)*; Nle = CCCC[C@H](N)C(=O)O; βAla = NCCC(=O)O

Assays:
[1] = system: MCF-10A cells; assay type: cell-based, human; details: 72 h
Protocol: (§1) The compounds were studied for antiproliferative activity by standard MTT dye reduction assay. Cell cultures from different cell line types (MCF-10A, MCF-7 and MDA-MB-231) were incubated with the test substances at a concentration of 15 to 2000 μM for 72 h. The antiproliferative activity expressed in % relative to the negative control was determined. The obtained results are shown on Figure 2. MCF-10A is a reliable model for normal human mammary epithelial cells, which serves as a control in experiments to determine antitumor activity. The IC50 values, found in MCF-10A, are used to calculate a selective index (SI), which assesses the potential of a substance to be used as an antitumor agent. We used the following formula to calculate the selective index SI = IC50 of MCF-10A / IC50 of tumor cells. The highest selective index with respect to MCF-7 is shown by the substances: Si3 (SI = 8.35), Si11 (SI = 2.62) and Si1 (SI = 1.24).
(§2) The antiproliferative activity testing was performed on cell cultures from several human cell lines using the standard MTT-dye reduction assay, described by Mosmann. The assay is based on the metabolism of the tetrazolium salt MTT to insoluble formazan by mitochondrial reductases. The formazan concentration can be determined spectrophotometrically. The measured absorption is an indicator of cell viability and metabolic activity. Cell lines: mammary gland type A adenocarcinoma ER+, PR+, HER2- (MCF-7), triple-negative breast cancer ER-, PR-, HER2- (MDA-MB-231) and breast, non-tumorigenic epithelial cell line (MCF-10A) were used in experiments. The cell lines were routinely grown as monolayers in 75 cm^2 tissue culture flasks under standard conditions (described above). Cells were plated at a density of 1 × 10^3 cells in 100 µL in each well of 96-well flat-bottomed microplates and allowed to adhere for 24 h before treatment with test compounds. A concentration range from 15 to 2000 μM was applied for 72 h. The formazan absorption was registered using a microplate reader at λ = 540 nm. Antiproliferative activities were expressed as IC50 values (concentrations required for 50% inhibition of cell growth), calculated using non-linear regression analysis (GraphPad Software, San Diego, CA, USA).

[2] = system: MDA-MB-231 cells; assay type: cell-based, human; details: 72 h
Protocol: as §1, §2

[3] = system: MCF-7 cells; assay type: cell-based, human; details: for selectivity with respect to the studied tumor cell lines (in words): MCF-7 and MDA-MB-231 versus MCF-10A
Protocol: as §1, §2

[4] = In vitro cytotoxicity testing (3T3 NRU test); assay type: cell-based; details: mouse
Protocol: The newly synthesized compounds were studied for cytotoxicity by standard method (3T3 NRU-test). The cells were incubated with the test substances at a concentration of 30 to 4000 μM for 24 h. The cytotoxicity expressed, in % relative to the negative control was determined.
The cytotoxicity testing was performed as described by Borenfreund et al. and the latest modification of the validated BALB/3T3 clone A31 Neutral Red Uptake Assay (3T3 NRU test) for cytotoxicity testing. BALB/3T3, clone A31 mouse embryo cells were grown as monolayer in 75 cm^2 tissue culture flasks in DMEM high-glucose (4.5 g/L), supplemented with 10% FBS and antibiotics (Sigma-Aldrich, Schnelldorf, Germany). Cultures were maintained at 37.5 °C in a humidified atmosphere under 5% CO2. Cells were plated at a density of 1 × 10^4 cells in 100 μL culture medium in each well of 96-well flat-bottomed microplates (Biologix, Lenexa, KS, USA) and allowed to adhere for 24 h. The test compounds, dissolved in DMSO and diluted in culture medium to concentration range 30 to 4000 μM were then added and the cell cultures were incubated for additional 24 h. […] After treatment with Neutral Red medium, washing and treatment with the Ethanol/Acetic acid solution (NR Desorb), the absorption was measured on a TECAN microplate reader (TECAN, Grödig, Austria) at wavelength 540 nm.

[5] = system: Escherichia coli K12 407; assay type: cell-based; details: for antibacterial effect, zones free of microbial growth (in words): agar diffusion, E. coli K12 407
Protocol: Antibacterial properties of the obtained new peptides and their conjugates were tested against E. coli K12 407 strain. Antibacterial activity of tested compounds was proven through appear of free zone around the loaded disk-paper by means of agar-diffusion method (Figure 3).
All newly synthesized derivatives of (KLAKLAK)2-NH2 at two concentrations 10 μM and 20 μM, were tested against facultative anaerobic gram-negative Esherichia coli NBIMCC K12 407. The strains were obtained from the culture collection of Bulgarian National Bank for Industrial Microorganisms and Cell Cultures (Sofia, Bulgaria) and were cultured in Luria-Bertani (LB) medium (Mumbai, India). The microbiological tests were performed using the agar diffusion method. The overnight pure cultures from tested strains were prepared in liquid LB-medium. A single colony was used for inoculating the liquid LB medium in order to maintain initial bacterial concentration of 1 × 10^7 cfu/mL. 100 µL of bacterial suspensions were seeded on agar plates with solid LB-medium. After 30 min, sterile paper disks 6 mm in diameter were soaked with tested samples in amount of 6 µL and placed on the agar petri dishes surface. The plates were incubated for 24 h at 37 °C. The appeared inhibition zones and their size were measured. The sterile paper disks soaked with water was used as blank. Mean values were calculated by performing the experiments in triplicates.

[6] = MDA-MB-231, MTT, 15 to 2000 μM, read-out: IC50 of Mean ± SD, Antiproliferative Activity, MDA-MB-231

Structure (SMILES)	IC50 [2]	IC50 ([3]; 72 h)	melting point	IC50 [1]	selective index (SI) with respect to MCF-7 ([3]; 72 h)	selectivity with respect to the studied tumor cell lines (in words) [3]	IC50 at 24 h [4]	IC50 [2, 6]	Average inhibition zones size ([5]; 20 μM, E. coli K12 407, 24 h at 37 °C, three replicates ± SD)	antibacterial effect, zones free of microbial growth (in words) [5]	IC50 ([1]; MCF-10A, MTT, 15 to 2000 μM, read-out: IC50 of Mean ± SD, Antiproliferative Activity, MCF-10A)	IC50 ([3]; MCF-7, MTT, 72 h, 15 to 2000 μM, read-out: IC50 of Mean ± SD, Antiproliferative Activity, MCF-7)	selective index (SI) with respect to MCF-7 ([3]; SI = IC50 of MCF-10A / IC50 of MCF-7)	IC50 at 24 h ([4]; BALB/3T3 cells, NRU, 24 h, 30 to 4000 μM, read-out: IC50 of Mean ± SD, Cytotoxicity, BALB/3T3)	activity against Escherichia coli K12 407 (in words) ([5]; 20 μM)
N.N.[Cl][Pt][Cl] [Cisplatin, reference compound]	–	–	–	–	–	–	–	1.83 ± 0.13 µM	–	–	–	–	–	–	–
CC(C)C[C@H](NC(=O)[C@H](CCCCN)NC(=O)[C@H](C)NC(=O)[C@H](CC(C)C)NC(=O)[C@H](CCCCN)NC(=O)[C@H](CCCCN)NC(=O)[C@H](C)NC(=O)[C@H](CC(C)C)NC(=O)[C@H](CCCCN)NC(=O)[C@H](C)NC(=O)[C@H](CC(C)C)NC(=O)[C@@H](N)CCCCN)C(=O)N[C@@H](C)C(=O)N[C@@H](CCCCN)C(N)=O [Si1, (KLAKLAK)2-NH2]	–	–	–	–	–	–	–	746 ± 7.6 µM	5 ± 0.15 mm	clear zones free of microbial growth	154 ± 6.53 µM	124 ± 8.12 µM	1.24	0.365 ± 0.00408 mM	–
CC(C)C[C@H](NC(=O)[C@H](CCCCN)NC(=O)CCNC(=O)[C@H](CC(C)C)NC(=O)[C@H](CCCCN)NC(=O)CN1C(=O)c2cccc3cccc(c23)C1=O)C(=O)NCCC(=O)N[C@@H](CCCCN)C(N)=O [Si2, 1,8-naphthalimideG-KLβAKLβAK-NH2] ({Acetyl(1,8-naphthalimido)}-KL[βAla]KL[βAla]K-NH2)	840 ± 21.2 µM	663 ± 20 µM	–	666 ± 20.9 µM	–	no significant SI is observed	1.43 ± 0.0484 mM	–	–	–	–	–	–	–	–
CCCC[C@H](NC(=O)[C@H](CCCCN)NC(=O)CN1C(=O)c2cccc3cccc(c23)C1=O)C(=O)N[C@@H](C)C(=O)N[C@@H](CCCCN)C(=O)N[C@@H](CCCC)C(=O)N[C@@H](C)C(=O)N[C@@H](CCCCN)C(N)=O [Si14, 1,8-naphthalimideG-KnLAKnLAK-NH2] ({Acetyl(1,8-naphthalimido)}-K[Nle]AK[Nle]AK-NH2)	1050 ± 49.8 µM	593 ± 60.3 µM	–	631 ± 51.2 µM	–	No selectivity	2.89 ± 0.0614 mM	–	–	clear zones free of microbial growth	–	–	–	–	moderate activity
CC(C)C[C@H](NC(=O)[C@H](CCCCN)NC(=O)/C=C/c1ccc(O)c(O)c1)C(=O)NCCC(=O)N[C@@H](CCCCN)C(=O)N[C@@H](CC(C)C)C(=O)NCCC(=O)N[C@@H](CCCCN)C(N)=O [Si11, Caf-KLβAKLβAK-NH2] (Caffeoyl-KL[βAla]KL[βAla]K-NH2)	1090 ± 70.7 µM	229 ± 7.18 µM	–	597 ± 53 µM	2.62	significant selective index	0.742 ± 0.0185 mM	–	–	–	–	–	–	–	–
CC(C)C[C@H](NC(=O)[C@H](CCCCN)NC(=O)CN1C(=O)c2cccc3cccc(c23)C1=O)C(=O)N[C@@H](C)C(=O)N[C@@H](CCCCN)C(=O)N[C@@H](CC(C)C)C(=O)N[C@@H](C)C(=O)N[C@@H](CCCCN)C(N)=O [Si7, 1,8-naphthalimideG-KLAKLAK-NH2] ({Acetyl(1,8-naphthalimido)}-KLAKLAK-NH2)	> 2000 µM	1200 ± 132 µM	–	1140 ± 64.5 µM	–	do not show selectivity	3.42 ± 0.0513 mM	–	–	–	–	–	–	–	–

More lines, main results first:

IC50 [2]	IC50 ([3]; 72 h)	melting point	Structure (SMILES)	IC50 [1]	selective index (SI) with respect to MCF-7 ([3]; 72 h)	selectivity with respect to the studied tumor cell lines (in words) [3]	IC50 at 24 h [4]	IC50 [2, 6]	Average inhibition zones size ([5]; 20 μM, E. coli K12 407, 24 h at 37 °C, three replicates ± SD)	antibacterial effect, zones free of microbial growth (in words) [5]	IC50 ([1]; MCF-10A, MTT, 15 to 2000 μM, read-out: IC50 of Mean ± SD, Antiproliferative Activity, MCF-10A)	IC50 ([3]; MCF-7, MTT, 72 h, 15 to 2000 μM, read-out: IC50 of Mean ± SD, Antiproliferative Activity, MCF-7)	selective index (SI) with respect to MCF-7 ([3]; SI = IC50 of MCF-10A / IC50 of MCF-7)	IC50 at 24 h ([4]; BALB/3T3 cells, NRU, 24 h, 30 to 4000 μM, read-out: IC50 of Mean ± SD, Cytotoxicity, BALB/3T3)	activity against Escherichia coli K12 407 (in words) ([5]; 20 μM)
> 2000 µM	176 ± 4.66 µM	–	CC(C)C[C@H](NC(=O)[C@H](CCCCN)NC(=O)CCNC(=O)[C@H](CC(C)C)NC(=O)[C@@H](N)CCCCN)C(=O)NCCC(=O)N[C@@H](CCCCN)C(N)=O [Si3, KLβAKLβAK-NH2] (H-KL[βAla]KL[βAla]K-NH2; N-terminus assumed)	1470 ± 104 µM	8.33	significant selective index	2.87 ± 0.13 mM	–	–	–	–	–	–	–	–
346 ± 7.91 µM	140 ± 7.12 µM	–	CCCC[C@H](NC(=O)[C@H](CCCCN)NC(=O)/C=C/c1ccc(O)c(O)c1)C(=O)N[C@@H](C)C(=O)N[C@@H](CCCCN)C(=O)N[C@@H](CCCC)C(=O)N[C@@H](C)C(=O)N[C@@H](CCCCN)C(N)=O [Si15, Caf-KnLAKnLAK-NH2] (Caffeoyl-K[Nle]AK[Nle]AK-NH2)	147 ± 7.96 µM	–	No selectivity	1.514 ± 0.0122 mM	–	–	–	–	–	–	–	–
> 2000 µM	> 2000 µM	–	CC(C)C[C@H](NC(=O)[C@H](CCCCN)NC(=O)[C@H](C)NC(=O)[C@H](CC(C)C)NC(=O)[C@@H](N)CCCCN)C(=O)N[C@@H](C)C(=O)N[C@@H](CCCCN)C(N)=O [Si6, KLAKLAK-NH2] (H-KLAKLAK-NH2; N-terminus assumed)	> 2000 µM	–	do not show selectivity	> 4 mM	–	–	clear zones free of microbial growth	–	–	–	–	moderate activity
> 2000 µM	1700 ± 112 µM	–	CCCC[C@H](NC(=O)[C@H](CCCCN)NC(=O)[C@H](C)NC(=O)[C@H](CCCC)NC(=O)[C@@H](N)CCCCN)C(=O)N[C@@H](C)C(=O)N[C@@H](CCCCN)C(N)=O [Si13, KnLAKnLAK-NH2] (H-K[Nle]AK[Nle]AK-NH2; N-terminus assumed)	> 2000 µM	–	–	> 4 mM	–	–	–	–	–	–	–	–
514 ± 26.8 µM	129 ± 8.03 µM	154 °C	CC(C)C[C@H](NC(=O)[C@H](CCCCN)NC(=O)/C=C/c1ccc(O)c(O)c1)C(=O)N[C@@H](C)C(=O)N[C@@H](CCCCN)C(=O)N[C@@H](CC(C)C)C(=O)N[C@@H](C)C(=O)N[C@@H](CCCCN)C(N)=O [Si8, Caf-KLAKLAK-NH2] (Caffeoyl-KLAKLAK-NH2)	136 ± 7.09 µM	–	do not show selectivity	0.71 ± 0.0119 mM	–	–	clear zones free of microbial growth	–	–	–	–	–
